Source: PubChem BioAssay (NCI)
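All cell lines were grown in 96-well plates and treated with compound for 48 hours. Abbreviation: GI50, concentration required for 50% inhibition of growth. TGI: concentration producing complete growth inhibition.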

How the values were obtained:
Experiment in all cases: NCI tumour cell line growth inhibition, 48 h
[1] = tested on: 786-0 renal
[2] = tested on: A498 renal
[3] = tested on: A549 NSCLC
[4] = tested on: ACHN renal
[5] = tested on: BT-549 breast
[6] = tested on: CAKI-1 renal
[7] = tested on: CCRF-CEM leukemia
[8] = tested on: COLO 205 colon
[9] = tested on: DU-145 prostate
[10] = tested on: EKVX NSCLC
[11] = tested on: HCC-2998 colon
[12] = tested on: HCT-116 colon
[13] = tested on: HCT-15 colon
[14] = tested on: HL-60(TB) leukemia
[15] = tested on: HOP-62 NSCLC
[16] = tested on: HOP-92 NSCLC
[17] = tested on: HS 578T breast
[18] = tested on: HT29 colon
[19] = tested on: IGROV1 ovarian
[20] = tested on: K-562 leukemia
[21] = tested on: KM12 colon
[22] = tested on: LOX IMVI melanoma
[23] = tested on: M14 melanoma
[24] = tested on: MALME-3M melanoma
[25] = tested on: MCF7 breast
[26] = tested on: MDA-MB-435
[27] = tested on: MDA-MB-468 breast
[28] = tested on: MOLT-4 leukemia
[29] = tested on: NCI-H226 lung
[30] = tested on: NCI-H23 lung
[31] = tested on: NCI-H460 lung
[32] = tested on: NCI-H522 lung
[33] = tested on: NCI/ADR-RES ovarian
[34] = tested on: OVCAR-3 ovarian
[35] = tested on: OVCAR-4 ovarian
[36] = tested on: OVCAR-5 ovarian
[37] = tested on: OVCAR-8 ovarian
[38] = tested on: PC-3 prostate
[39] = tested on: RPMI-8226 leukemia
[40] = tested on: RXF 393 renal
[41] = tested on: SF-268 CNS
[42] = tested on: SF-295 CNS
[43] = tested on: SF-539 CNS
[44] = tested on: SK-MEL-2 melanoma
[45] = tested on: SK-MEL-28 melanoma
[46] = tested on: SK-MEL-5 melanoma
[47] = tested on: SK-OV-3 ovarian
[48] = tested on: SN12C renal
[49] = tested on: SNB-19 CNS
[50] = tested on: SNB-75 CNS
[51] = tested on: SW-620 colon
[52] = tested on: T-47D breast
[53] = tested on: TK-10 renal
[54] = tested on: U251 CNS
[55] = tested on: UACC-257 melanoma
[56] = tested on: UACC-62 melanoma

CCCCCCCCCCCCCCCCCCCC(=O)NCCc1c[nH]c2ccc(OC(=O)NOCCOCCOCCOCCOCCOCCOCCOCCOCCOCCOCCOCCOCCOCCOCCOCCOCCOCCOCCOCCOCCOCCOC)cc12
GI50 [1]: 31 µM | TGI [1]: 89 µM | GI50 [2]: 25.9 µM | TGI [2]: 89.9 µM | GI50 [3]: 17.7 µM | TGI [3]: 47.9 µM | GI50 [4]: 45.7 µM | TGI [4]: > 100 µM | GI50 [5]: 14.1 µM | TGI [5]: 28.5 µM | GI50 [6]: > 100 µM | TGI [6]: > 100 µM | GI50 [7]: 13.5 µM | TGI [7]: 33.8 µM | GI50 [8]: 16.6 µM | TGI [8]: 30.9 µM | GI50 [9]: 28 µM | TGI [9]: > 100 µM | GI50 [10]: 20.9 µM | TGI [10]: 88.4 µM | GI50 [11]: 15.6 µM | TGI [11]: 30 µM | GI50 [12]: 17.4 µM | TGI [12]: 38.2 µM | GI50 [13]: 54.4 µM | TGI [13]: > 100 µM | GI50 [14]: 14.4 µM | TGI [14]: 32.7 µM | GI50 [15]: 17.8 µM | TGI [15]: 36.3 µM | GI50 [16]: 6.3 µM | TGI [16]: 44.7 µM | GI50 [17]: 16.6 µM | TGI [17]: 41.2 µM | GI50 [18]: 15.6 µM | TGI [18]: 30.8 µM | GI50 [19]: 21.4 µM | TGI [19]: 57.1 µM | GI50 [20]: 17.7 µM | TGI [20]: 70.9 µM | GI50 [21]: 19.8 µM | TGI [21]: 41.2 µM | GI50 [22]: 14.9 µM | TGI [22]: 28.5 µM | GI50 [23]: 17.5 µM | TGI [23]: 35.2 µM | GI50 [24]: 14.4 µM | TGI [24]: 29.3 µM | GI50 [25]: 11 µM | TGI [25]: 28.5 µM | GI50 [26]: 20.6 µM | TGI [26]: 48.6 µM | GI50 [27]: 11.9 µM | TGI [27]: 26.3 µM | GI50 [28]: 5.32 µM | TGI [28]: 24.9 µM | GI50 [29]: 17.4 µM | TGI [29]: 38.5 µM | GI50 [30]: 19.9 µM | TGI [30]: 46.2 µM | GI50 [31]: 23.4 µM | TGI [31]: 79.4 µM | GI50 [32]: 14.9 µM | TGI [32]: 28.8 µM | GI50 [33]: > 100 µM | TGI [33]: > 100 µM | GI50 [34]: 13.2 µM | TGI [34]: 53.3 µM | GI50 [35]: 18.7 µM | TGI [35]: 87.7 µM | GI50 [36]: 17.3 µM | TGI [36]: 41.9 µM | GI50 [37]: 16.4 µM | TGI [37]: 46.2 µM | GI50 [38]: 18.3 µM | TGI [38]: 70.9 µM | GI50 [39]: 11.8 µM | TGI [39]: 37.6 µM | GI50 [40]: 19.7 µM | TGI [40]: 53.6 µM | GI50 [41]: 14.8 µM | TGI [41]: 52.7 µM | GI50 [42]: 17.8 µM | TGI [42]: 36.7 µM | GI50 [43]: 17.9 µM | TGI [43]: 40 µM | GI50 [44]: 12.8 µM | TGI [44]: 26 µM | GI50 [45]: 15.9 µM | TGI [45]: 33.9 µM | GI50 [46]: 13.5 µM | TGI [46]: 26.5 µM | GI50 [47]: 19.1 µM | TGI [47]: 41.3 µM | GI50 [48]: 15.1 µM | TGI [48]: 39.5 µM | GI50 [49]: 20.3 µM | TGI [49]: 51.7 µM | GI50 [50]: 26.9 µM | TGI [50]: 86 µM | GI50 [51]: 17.8 µM | TGI [51]: 33.1 µM | GI50 [52]: 9.98 µM | TGI [52]: 23.2 µM | GI50 [53]: 19.5 µM | TGI [53]: 56.1 µM | GI50 [54]: 16.7 µM | TGI [54]: 32.8 µM | GI50 [55]: 14.7 µM | TGI [55]: 30.2 µM | GI50 [56]: 17 µM | TGI [56]: 31.4 µM
